Results published in patent US12194082B2, “Compositions and methods for treatment of homocystinuria” (THE REGENTS OF THE UNIVERSITY OF COLORADO, priority 2016, dated 2025).

Key:
[1] = CBS enzyme activity assay, specific activity of pure enzyme; assay type: biochemical; conditions: lots used in osmotic pumps
Experimental: CBS activity was determined by a radioisotope assay with C^14-labeled serine as a substrate. Ten μl (total 490 ng) of pure htCBS in dilution buffer (0.1 M Tris-HCl pH=8.6, 1 mM DTT, 10 μM PLP, 0.5 mg/ml BSA) or 10 μl of plasma were added to 85 μl of reaction mixture containing 0.1 M Tris-HCl pH=8.6, 10 mM L-serine, 0.5 mM PLP, 0.5 mg/ml BSA and 0.3 μCi (for pure enzyme) or 0.45 μCi (for plasma) of L-[C^14(U)]-Serine. Samples were incubated for 5 min at 37° C. and reaction was initiated by addition of 5 μl of 0.2 M Hcy (10 mM final concentration). Following 30 min of incubation at 37° C., a 20 μl aliquot of the assay mixture was applied onto a grade 3 CHR Whatman (NJ, USA) paper. Assay initiation and sampling of the resulting mixture were staggered so that each reaction time was 30 minutes. Descending paper chromatography was used to isolate the radioactive product (Cth) from a labeled substrate (Ser). The C^14-cystathionine formed in the reaction was separated from C^14-serine by an overnight descending paper chromatography in 2-propanol/formic acid/H2O (75:5.7:18.9 v/v). Radioactivity in the area of the marker cystathionine (detected by staining the marker lane with ninhydrin) was determined by cutting the chromatogram into strips that were submerged in 5 ml of Opti-fluor scintillation cocktail (PerkinElmer, MA, USA) and counted in a Beckman LS-3801 scintillation counter. An enzyme-free sample was used as a blank to monitor the background radioactivity that was then subtracted from each sample. For pure enzyme, specific activity values are expressed as enzyme units (the amount of enzyme that produces 1 μmol of cystathionine/hour) per mg of CBS, and for plasma samples as units per μl plasma.

KO mice = experiment: Survival of KO mice treated with PEGylated htCBS C15S conjugates; assay type: in vivo, mouse
Experimental: A Kaplan Meyer survival curve was plotted of KO mice injected three times weekly with 7.5 mg/kg htCBS C15S PEGylated with ME-200MA0B (n=24), ME-400MA (n=31=13F+18M), or ME-200GS (n=28=14F+14M), and a group of KO mice (n=44) that was injected with PBS as a control. Lactating mothers were maintained on betaine water, and after weaning, the pups (day 21) were put on regular water with no betaine. The ability of the injected enzyme to rescue KO pups was tested.
After an initial 35 days (5 weeks) long treatment to prevent neonatal lethality of KO mice, the KO mice treated with 20NHS PEG-htCBS C15S were divided into two groups. One group (5 W) stopped receiving any treatment apart from the initial one, while the other group (CONT) continued with the same regimen for up to 120 days of age (7.5 mg/kg, SC, 3× a week).

Hcy, Cth, Cys = experiment: Plasma metabolites in surviving treated KO mice (trough and peak); assay type: in vivo; conditions: 7.5 mg/kg 3x weekly
Experimental: (§1) Plasma metabolites homocysteine, cystathionine and cysteine were determined by stable-isotope-dilution liquid chromatography mass spectrometry as previously described in (Allen et al., 1993, Metabolism, 42: 1448-1460). Measurements of total non-protein bound homocysteine and other aminothiols as well as of amino acids in tissue were performed as described in (Maclean et al., 2010b. Mol. Genet. Metab. 101, 153-162). Metabolites were determined by stable-isotope-dilution liquid chromatography mass spectrometry.
Metabolite levels in surviving KO mice at age of about 4-5 weeks were measured after a weekend washout (trough) and 24 hours after the last injection (peak) using the experimental procedure in Example 1.

Hcy, Cys, Cth, and Met = experiment: Metabolite levels in plasma and tissues of KO mice at 18-19 days of age; assay type: in vivo
Experimental: as §1
Plasma and tissue metabolites were measured in the groups of wild-type mice (control), untreated homozygous −/− affected KO mice, and 400MA PEG-htCBS C15S-treated KO mice. The treated group was administered subcutaneous injections of 400MA PEG-htCBS C15S 3 times per week at a dose of 7.5 mg/kg from the age of 2 days. Plasma and tissues were harvested 24 hours after the last injection.

Hcy, Cys = experiment: Continuous administration by ALZET osmotic pump in HO mice; assay type: in vivo; conditions: ALZET Model 2004 or 2006 pumps
Experimental: ALZET® osmotic pumps provide steady, controlled delivery of the 20NHS PEG-htCBS C15S for a prolonged period of time in fresh and naïve HO mice. The htCBS C15S PEGylated with ME-200GS was administrated using four different models of micro-osmotic ALZET® pumps, which continuously dispensed a volume of enzyme per hour instead of repeated subcutaneous injections: Model 1002 (0.25 μl/h), Model 2002 (0.5 μl/h), Model 2004 (0.25 μl/h), and Model 2006 (0.15 μl/h).
For pain relief, pre- and post-operatively, animals were also administered TYLENOL® (2 mg/ml) in water bottles ad libitum for 48 hours before and after surgery for implantation of the ALZET® pump. In addition, the animals received 5 mg/kg of carprofen subcutaneously every 24 hours, and for 48 hours postoperatively. For anesthesia during surgery, 5% isoflurane was administered by inhalation and maintained at 2-3% during surgery. While mice were anesthetized, they each received a medical grade ALZET® osmotic pump implanted under sterile conditions in a biological safety cabinet. Pumps were implanted subcutaneously in the loose skin area on the ventral side of the neck. Prior to implanting the pump, the mice were shaved and the skin area was prepped with BETADINE®. Pump implantation required a small surgical incision (5 mm) made with sterile scissors. […]

[2] = 7.5 mg/kg SC 3x/week from day 2, 24 hours after last injection, mean ± SEM
[3] = 7.5 mg/kg SC 3x/week from day 2, mean ± SEM

Substance: 20NHS PEG-htCBS C15S: htCBS C15S PEGylated with ME-200GS PEG (20 kDa linear NHS ester-activated PEG)
- specific activity of administered enzyme [1]: 673.9 ± 13.2 U/mg
- specific activity of administered enzyme ([1]; listed as ME-200GS PEGylated htCBS C15S): 623.2 ± 16.4 U/mg
- survival (KO mice; 7.5 mg/kg three times weekly, day 21): about 97%
- survival of all mice (KO mice; continuous 7.5 mg/kg SC 3x a week up to 120 days of age): at least 119 days
- survival at 119 days of age (KO mice; treatment terminated after initial 35 days): about 85%
- plasma Cys (Hcy, Cth, Cys; 24 hours post-dose): 176 ± 6 µM
- plasma Hcy (Hcy, Cth, Cys; 24 hours post-dose): 96 ± 8 µM
- plasma Cys (Hcy, Cth, Cys; 72 hours post-dose): 106 ± 6 µM
- plasma Hcy (Hcy, Cth, Cys; 72 hours post-dose): 179 ± 10 µM
- Cystathionine in plasma (Hcy, Cys, Cth, and Met; [2]): 133.2 ± 9.1 µM
- Cysteine in plasma (Hcy, Cys, Cth, and Met; [2]): 211.7 ± 11.5 µM
- Homocysteine in plasma (Hcy, Cys, Cth, and Met; [2]): 52.8 ± 6.8 µM
- Methionine in plasma (Hcy, Cys, Cth, and Met; [2]): 99.2 ± 5.4 µM
- Cystathionine in brain tissue (Hcy, Cys, Cth, and Met; [3]): 8.5 ± 1.1 nmols/g
- Cystathionine in kidney tissue (Hcy, Cys, Cth, and Met; [3]): 256.0 ± 77.5 nmols/g
- Cystathionine in liver tissue (Hcy, Cys, Cth, and Met; [3]): 18.9 ± 1.8 nmols/g
- Cysteine in brain tissue (Hcy, Cys, Cth, and Met; [3]): 56.8 ± 3.0 nmols/g
- Cysteine in kidney tissue (Hcy, Cys, Cth, and Met; [3]): 282.8 ± 17.1 nmols/g
- Cysteine in liver tissue (Hcy, Cys, Cth, and Met; [3]): 205.2 ± 27.4 nmols/g
- Homocysteine in brain tissue (Hcy, Cys, Cth, and Met; [3]): 1.1 ± 0.1 nmols/g
- Homocysteine in kidney tissue (Hcy, Cys, Cth, and Met; [3]): 6.76 ± 4.42 nmols/g
- Homocysteine in liver tissue (Hcy, Cys, Cth, and Met; [3]): 22.4 ± 3.4 nmols/g
- Methionine in brain tissue (Hcy, Cys, Cth, and Met; [3]): 68.6 ± 4.7 nmols/g
- Methionine in kidney tissue (Hcy, Cys, Cth, and Met; [3]): 53.3 ± 2.9 nmols/g
- Methionine in liver tissue (Hcy, Cys, Cth, and Met; [3]): 25.5 ± 3.4 nmols/g
- Cys plasma levels (Hcy, Cys): only a modest increase
- plasma levels of Hcy (Hcy, Cys): substantially reduced
